The text below walks through data of US5559096A, “Pharmaceutical compositions against gastric disorders” (Applied Microbiology, Inc., priority 1991, dated 1996).

Positions of bridges follow the written chain, without caps; N, C: chain ends. Non-standard residues stand in square brackets, D forms with d. Primed or numbered codes have the meaning given here. No end group written: not given here. Dhb′ = not defined here; Abu = CC[C@H](N)C(=O)O; Dha = C=C(N)C(=O)O A value given as a limit tells only on which side of the number the result lay.

In experiment [1] the test system is H.pylori NCTC 11916. The experiment in a line: MIC by spiral plater, H.pylori NCTC 11916. The format is cell-based, Helicobacter pylori. As to conditions: H.pylori NCTC 11916, human strain. The method, then:
(§1) The Minimum Inhibitory Concentration (MIC) of bacteriocin antimicrobial agents against a human strains of H.pylori (H.pylori NCTC 11916 and NCTC 11637) were assessed using a spiral plater and automatic agar plate pourer, according to the method of Wallace A. S. and Corkill J. E. (J. Microbial. Methods, 10, 303-310, 1989). MIC values were calculated according to the equation for the Archimedes spiral.

In experiment [2] the test system is H.pylori NCTC 11637. The experiment in a line: MIC by spiral plater, H.pylori NCTC 11637. Particulars: H.pylori NCTC 11637, human strain. The format is cell-based, Helicobacter pylori. The procedure:
as §1

Experiment [3] concerns Helicobacter pylori. The experiment can be described thus: Kill time at 4 times the average MIC. The experiment is classed as cell-based. Particulars: time taken to reduce microbe levels to <200 viable organisms; drug concentration 4 times the average MIC. The procedure: Kill time was calculated as the time taken to reduce microbe levels to <200 viable organisms using a drug concentration equal to 4 times the average MIC value for the test compound.

Experiment [4] relates to Helicobacter pylori. The experiment in a line: Kill time assay: effect of citrate on antimicrobial activity (microbe survival). The format is cell-based. As to conditions: Citrate 10 mM; for Mean Counts CFU/ml 1 min: 1 min after inoculation; for Mean Counts CFU/ml 5 min: 5 min after inoculation; for Mean Counts CFU/ml 30 min: 30 min after inoculation. The procedure:
A kill time assay was carried out to determine the effect of citrate on antimicrobial activity. Microbe survival was assessed after treatment with bacteriocin alone and bacteriocin plus citrate. The effect of citrate alone was also measured. Survival was measured at 1,5 and 30 minutes after inoculation. Activity is expressed as the mean number of counts of colony forming units (CFU) per ml.

[5] abbreviates: Initial Inoculum 8.92 × 10^4, Ambicin N 300 ppm.

For the compound Gramicidin, the “MIC Value NCTC 11916” value in experiment [1] is 0.5 to 3.0 µg/mL. Further, in experiment [2], the “MIC Value NCTC 11637” value lay in the range of 1.0 to 3.5 µg/mL. Also, in experiment [3], the “Kill Time” value is over 30. Also, in experiment [4] (Initial Inoculum 2.39 × 10^5), the “Mean Counts CFU/ml 1 min” value is on record as 7.69 × 10^3 CFU/ml, the “Mean Counts CFU/ml 5 min” value is listed as 1.44 × 10^4 CFU/ml and the “Mean Counts CFU/ml 30 min” value was 1.35 × 10^4 CFU/ml.
In the case of `CC(C)C[C@@H]1NC(=O)[C@H](CCCN)NC(=O)[C@H](C(C)C)NC(=O)[C@H](Cc2ccc(O)cc2)N[C@@H](CCC(=O)O)C(=O)N[C@@H](CC(N)=O)C(=O)[C@@H](Cc2ccccc2)NC(=O)[C@H](Cc2ccccc2)NC(=O)[C@@H]2CCCN2C(=O)[C@@H](Cc2ccccc2)NC1=O` [Tyrothricin], the “MIC Value NCTC 11916” value in experiment [1] was in the range of 1.0 to 4.0 µg/mL. The “MIC Value NCTC 11637” value in experiment [2] lay in the range of 1.0 to 5.0 µg/mL. The “Kill Time” value in experiment [3] is on record as under 1. In experiment [4] (Initial Inoculum 2.39 × 10^5), the “Mean Counts CFU/ml 1 min” value was 2.55 × 10^4 CFU/ml, the “Mean Counts CFU/ml 5 min” value is listed as 1.77 × 10^4 CFU/ml and the “Mean Counts CFU/ml 30 min” value is given as 1.78 × 10^4 CFU/ml.
For `O=C(O)CC(O)(CC(=O)O)C(=O)O` [Citrate], in experiment [4] (Initial Inoculum 2.39 × 10^5), the “Mean Counts CFU/ml 1 min” value is given as 1.59 × 10^4 CFU/ml, the “Mean Counts CFU/ml 5 min” value was 1.42 × 10^4 CFU/ml and the “Mean Counts CFU/ml 30 min” value is on record as 1.95 × 10^4 CFU/ml. For the same compound, in experiment [4] (setting [5]), the “Mean Counts CFU/ml 1 min” value is given as 7.98 × 10^4 CFU/ml, the “Mean Counts CFU/ml 5 min” value is recorded as 8.64 × 10^4 CFU/ml and the “Mean Counts CFU/ml 30 min” value was 6.92 × 10^4 CFU/ml.
In the case of “Ambicin N: purified form of nisin made available by Applied Microbiology Inc. under the trade name AMBICIN N (I[Dhb′]AI[Dha]LC[Abu]PGCK[Abu]GALMGCNMK[Abu]A[Abu]CHCSIHV[Dha]K; thioether 8-11, 13-19, 23-26, 25-28, 3-7; UniProt P13068 24-57, looked up)”, the “MIC Value NCTC 11916” value in experiment [1] was in the range of 50 to 300 µg/mL. Moreover, the “MIC Value NCTC 11637” value in experiment [2] lay in the range of 50 to 300 µg/mL. Further, the “Kill Time” value in experiment [3] is recorded as over 30. In experiment [4] (setting [5]), the “Mean Counts CFU/ml 1 min” value was 6.31 × 10^4 CFU/ml, the “Mean Counts CFU/ml 5 min” value is 5.71 × 10^4 CFU/ml and the “Mean Counts CFU/ml 30 min” value is recorded as 4.72 × 10^4 CFU/ml.
